Reference: US8785400B2, “Methods and compositions relating to islet cell neogenesis” (CureDM Group Holdings, LLC, priority 2006, dated 2014)

Assays:
[1] = tested on: human pancreatic islet tissue cultures; experiment: Insulin production by ELISA, human islet tissue cultures (Example 3); format: cell-based; conditions: vs SEQ ID NO:1 and SEQ ID NO:5
Method: Samples are 0.002 μg total protein in duplicate and measured by ELISA assay.
Values are mean insulin units (of duplicate samples) as measured by ELISA assay.
Human pancreatic tissue was treated as described in Example 1 and Insulin production was measured by ELISA assay. FIGS. 5 and 6 show the results of this experiment to show a dose response and to again compare the effect of HIP2 on the two different fractions of tissue as compared to the hamster INGAP sequence and a scrambled negative peptide sequence. […] The results in FIG. 5 were generated using 5 μg of each peptide, while the results in FIG. 6 were acquired using 0.002 μg of each peptide.

[2] = tested on: streptozocin-induced diabetic mouse; experiment: Streptozocin-induced diabetic mouse (Example 6); format: in vivo
From the text: The streptozocin-induced diabetic mouse is a convenient animal model of type 1 diabetes because researchers are able to chemically induce diabetes under controlled conditions rather than waiting for mice to become diabetic naturally or by forcing diabetes through prescribed obesity. Based on experience with the streptozocin model in the rat, a high degree of variability was anticipated for the induction of the disease in mice and therefore 60 mice were induced with streptozocin. Mice were injected intraperitoneally with streptozocin at 40 mg/kg in citrate buffer, pH4.5, on 5 consecutive days in an attempt to render them diabetic. A mouse was considered diabetic once its blood glucose level was greater than 16.7 mmol/L (300 mg/dL) for at least 1 week. If the blood glucose level of any animal became too high (>400 mg/dL) the animal was treated with an effective amount of insulin. In this example, 60 male mice, ranging from 6-8 weeks old at the outset of the study, were treated with streptozocin as described above. Those mice that were declared diabetic were then used to test the effectiveness of HIP2 as compared to other test agents.
Animals were group housed in compliance with the National Research Council “Guide for the Care and Use of Laboratory Animals”. The animals received 12 hours light/12 hours dark, except when room lights were turned on during the dark cycle to accommodate study procedures. Room temperature was maintained between 18 to 26° C. at all times. Relative humidity was maintained between 30-70% at all times. All animals were given access to Harlan Teklad Rodent Diet or equivalent and tap water via water bottle. Animals were allowed to acclimate to their new environment for a minimum of 7 days prior to first dosing.
Mice were randomly divided and assigned to study groups. Each study group was assigned treatment with one of 5 test agents (see Treatment section below). Prior to being treated, each mouse was tested for diabetes via monitoring their blood glucose levels. After confirmation that the mice were diabetic (blood glucose levels greater than 16.7 mmol/L (300 mg/dL) for at least 1 week) the mice were dosed with their respective test agent.
Each study group received doses of one of the following test agents: HIP2, HIP1, HIP, Hamster INGAP (SEQ ID NO:1) or isotonic saline “Vehicle” (0.9% NaCl) (negative control). Mice were given doses of their respective agent interperitoneally twice daily (am and pm, +/−2 hours for each administration) at 250 ug/dose, in 100 ul dose volume, for 28 consecutive days. Test agents were prepared once daily by dissolving the appropriate amount of test agent in isotonic saline to result in a 2.5 mg/ml solution. Blood glucose levels were tested every 3 days, at the same time each day, using a glucometer. If the blood glucose level in any animal became too high, the animal was treated with insulin. At the end of the treatment, all surviving animals were euthanized by CO2 asphyxiation following terminal blood collection. Blood samples were collected under CO2 cardiocentesis. The plasma was separated and then frozen at −80° C. For histological analysis, the pancreas from each mouse was removed and snap-frozen.
Blood glucose levels are measured every 3 days and tracked to evaluate differences in glucose levels.

[3] = streptozocin mice, 250 ug/dose i.p. twice daily, 28 days, vs other test agents

What does the source list for “HIP2: Human proIslet Peptide, fragment of human REG3A, in purified, synthetic, or recombinant form (SEQ ID NO:4) (IGLHDPTQGTEPNG; Fragment of naturally occurring human REG3 protein)”?
insulin production (FIG. 6) ([1]; after 10 days, Rosenberg protocol, 0.002 μg): increased insulin production; insulin production (FIG. 8A) ([1]; two concentrations (3 μM and 1 mM)): increased insulin production; time at which mice were completely insulin-free [2]: ≤ 21 days; glucose levels from baseline compared with control ([2]; streptozocin mice): significant reduction; blood glucose levels [2, 3]: pronounced reduction; insulinitis in the pancreas [2, 3]: decreased showing of insulinitis; insulin requirements (and rate of decrease) ([2]; streptozocin mice, compared to placebo): Significant reductions
